From ChEMBL document CHEMBL1201862, “PubChem BioAssay data set” (2004)
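1) Cells in 96-well plates. 2) Compound, 48 h, 5 concentrations. 3) Linear interpolation between surrounding doses. 4) Unreached endpoint = highest concentration. GI50 is the concentration that inhibits growth by half.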 Calls of active or inactive are those of the source. Rule as the data show it: active = GI50 up to about 1.1 µM and inactive = higher.

Key:
Experiment in all cases: inhibition of tumour cell growth, NCI panel, 48 h
SK-MEL-28 = tested on: SK-MEL-28
A549 = tested on: A549
MCF7 = tested on: MCF7
OVCAR-5 = tested on: OVCAR-5
HOP-92 = tested on: HOP-92
SNB-75 = tested on: SNB-75
MOLT-4 = tested on: MOLT-4
Hs-578T = tested on: Hs-578T
SNB-19 = tested on: SNB-19
NCI-H522 = tested on: NCI-H522
NCI-H226 = tested on: NCI-H226
COLO 205 = tested on: COLO 205
SF-268 = tested on: SF-268
SK-MEL-2 = tested on: SK-MEL-2
OVCAR-4 = tested on: OVCAR-4
NCI-H23 = tested on: NCI-H23
IGROV-1 = tested on: IGROV-1
M14 = tested on: M14
T47D = tested on: T47D
HOP-62 = tested on: HOP-62
786-0 = tested on: 786-0
ACHN = tested on: ACHN
SR = tested on: SR
DU-145 = tested on: DU-145
CAKI-1 = tested on: CAKI-1
K562 = tested on: K562
SN12C = tested on: SN12C
SF-295 = tested on: SF-295
SF-539 = tested on: SF-539
KM12 = tested on: KM12
TK-10 = tested on: TK-10
NCI/ADR-RES = tested on: NCI/ADR-RES
UO-31 = tested on: UO-31
RPMI-8226 = tested on: RPMI-8226
EKVX = tested on: EKVX
SW-620 = tested on: SW-620
MDA-MB-231 = tested on: MDA-MB-231
RXF 393 = tested on: RXF 393
LOX IMVI = tested on: LOX IMVI
OVCAR-8 = tested on: OVCAR-8
OVCAR-3 = tested on: OVCAR-3
U-251 = tested on: U-251
UACC-62 = tested on: UACC-62
PC-3 = tested on: PC-3
MDA-MB-435 = tested on: MDA-MB-435
HT-29 = tested on: HT-29
A498 = tested on: A498
Malme-3M = tested on: Malme-3M
SK-MEL-5 = tested on: SK-MEL-5
NCI-H460 = tested on: NCI-H460
HCT-15 = tested on: HCT-15
HL-60 = tested on: HL-60
UACC-257 = tested on: UACC-257
HCT-116 = tested on: HCT-116
BT-549 = tested on: BT-549
MDA-N = tested on: MDA-N
SK-OV-3 = tested on: SK-OV-3
CCRF-CEM = tested on: CCRF-CEM
HCC 2998 = tested on: HCC 2998

In the case of `Cc1cc(SCC(=O)c2ccccc2)nc2ccccc12`, the GI50 (SK-MEL-28) is reported as > 100 µM (inactive), the GI50 (A549) is reported as 67.1 µM (inactive) and the GI50 (MCF7) is reported as > 100 µM (inactive). The GI50 (OVCAR-5) was 72.9 µM (inactive), the GI50 (HOP-92) was > 100 µM (inactive) and the GI50 (SNB-75) was 36.7 µM (inactive). For the same compound, the GI50 (MOLT-4) was > 100 µM (inactive), the GI50 (Hs-578T) was < 0.01 µM (active) and the GI50 (SNB-19) was > 100 µM (inactive). The GI50 (NCI-H522) was 53.7 µM (inactive), the GI50 (NCI-H226) was > 100 µM (inactive) and the GI50 (COLO 205) was > 100 µM (inactive). The GI50 (SF-268) was 55.8 µM (inactive), the GI50 (SK-MEL-2) was > 100 µM (inactive) and the GI50 (OVCAR-4) was > 100 µM (inactive). The GI50 (NCI-H23) was > 100 µM (inactive), the GI50 (IGROV-1) was > 100 µM (inactive) and the GI50 (M14) was 92.3 µM (inactive). For the same compound, the GI50 (T47D) was > 100 µM (inactive), the GI50 (HOP-62) was 88.9 µM (inactive) and the GI50 (786-0) was > 100 µM (inactive). The GI50 (ACHN) was > 100 µM (inactive), the GI50 (SR) was > 100 µM (inactive) and the GI50 (DU-145) was > 100 µM (inactive). For the same compound, the GI50 (CAKI-1) was > 100 µM (inactive), the GI50 (K562) was > 100 µM (inactive) and the GI50 (SN12C) was > 100 µM (inactive). The GI50 (SF-295) was > 100 µM (inactive), the GI50 (SF-539) was > 100 µM (inactive) and the GI50 (KM12) was > 100 µM (inactive). For the same compound, the GI50 (TK-10) was > 100 µM (inactive), the GI50 (NCI/ADR-RES) was > 100 µM (inactive) and the GI50 (UO-31) was 73.5 µM (inactive). For the same compound, the GI50 (RPMI-8226) was > 100 µM (inactive), the GI50 (EKVX) was 8.11 µM (inactive) and the GI50 (SW-620) was > 100 µM (inactive). The GI50 (MDA-MB-231) was > 100 µM (inactive), the GI50 (RXF 393) was > 100 µM (inactive) and the GI50 (LOX IMVI) was > 100 µM (inactive). The GI50 (OVCAR-8) was > 100 µM (inactive), the GI50 (OVCAR-3) was 41.2 µM (inactive) and the GI50 (U-251) was > 100 µM (inactive). The GI50 (UACC-62) was > 100 µM (inactive), the GI50 (PC-3) was > 100 µM (inactive) and the GI50 (MDA-MB-435) was > 100 µM (inactive). The GI50 (HT-29) was 40.1 µM (inactive), the GI50 (A498) was > 100 µM (inactive) and the GI50 (Malme-3M) was > 100 µM (inactive). For the same compound, the GI50 (SK-MEL-5) was > 100 µM (inactive), the GI50 (NCI-H460) was > 100 µM (inactive) and the GI50 (HCT-15) was > 100 µM. For the same compound, the GI50 (HL-60) was > 100 µM (inactive), the GI50 (UACC-257) was > 100 µM (inactive) and the GI50 (HCT-116) was > 100 µM (inactive). The GI50 (BT-549) was > 100 µM (inactive).

In the case of `COC(=O)[C@]1(c2cc3ccccc3[nH]2)CC2CN(CC(=O)N(C)OC)C1CC2(OC)OC` (stereo partly specified), the GI50 (SK-MEL-28) is reported as > 100 µM (inactive), the GI50 (A549) is reported as 47.1 µM (inactive) and the GI50 (MCF7) is reported as 32.8 µM (inactive). The GI50 (OVCAR-5) was 52.2 µM (inactive), the GI50 (HOP-92) was 87.5 µM (inactive) and the GI50 (SNB-75) was 63.8 µM (inactive). The GI50 (SNB-19) was > 100 µM (inactive), the GI50 (NCI-H522) was 15.9 µM (inactive) and the GI50 (NCI-H226) was 34.4 µM (inactive). For the same compound, the GI50 (COLO 205) was 83.6 µM (inactive), the GI50 (SF-268) was 67.6 µM (inactive) and the GI50 (SK-MEL-2) was 39 µM (inactive). The GI50 (OVCAR-4) was 57.1 µM (inactive), the GI50 (NCI-H23) was 36 µM (inactive) and the GI50 (IGROV-1) was 48.3 µM (inactive). For the same compound, the GI50 (MDA-N) was 33.4 µM (inactive), the GI50 (M14) was 35.9 µM (inactive) and the GI50 (T47D) was 22 µM (inactive). The GI50 (HOP-62) was 69.3 µM (inactive), the GI50 (786-0) was 22.2 µM (inactive) and the GI50 (ACHN) was 35.1 µM (inactive). For the same compound, the GI50 (DU-145) was 43.5 µM (inactive), the GI50 (CAKI-1) was 20.7 µM (inactive) and the GI50 (K562) was 24.9 µM (inactive). The GI50 (SK-OV-3) was > 100 µM (inactive), the GI50 (SN12C) was 41.2 µM (inactive) and the GI50 (SF-295) was > 100 µM (inactive). The GI50 (SF-539) was 44.4 µM (inactive), the GI50 (KM12) was 31.6 µM (inactive) and the GI50 (TK-10) was > 100 µM (inactive). For the same compound, the GI50 (CCRF-CEM) was 7.23 µM (inactive), the GI50 (HCC 2998) was > 100 µM (inactive) and the GI50 (NCI/ADR-RES) was 41.2 µM (inactive). For the same compound, the GI50 (UO-31) was 40.2 µM (inactive), the GI50 (RPMI-8226) was 14.7 µM (inactive) and the GI50 (EKVX) was 56.6 µM (inactive). The GI50 (SW-620) was 36.4 µM (inactive), the GI50 (MDA-MB-231) was 31.9 µM (inactive) and the GI50 (RXF 393) was 33.5 µM (inactive). The GI50 (LOX IMVI) was 37.7 µM (inactive), the GI50 (OVCAR-8) was 39.3 µM (inactive) and the GI50 (OVCAR-3) was 50.6 µM (inactive). The GI50 (U-251) was 16.1 µM (inactive), the GI50 (UACC-62) was 67.8 µM (inactive) and the GI50 (PC-3) was 24.2 µM (inactive). The GI50 (MDA-MB-435) was 27.5 µM (inactive), the GI50 (HT-29) was 35.2 µM (inactive) and the GI50 (A498) was 39.1 µM (inactive). For the same compound, the GI50 (Malme-3M) was 24.3 µM (inactive), the GI50 (SK-MEL-5) was 40.6 µM (inactive) and the GI50 (NCI-H460) was 55.3 µM (inactive). The GI50 (HCT-15) was 28.2 µM, the GI50 (HL-60) was 19.4 µM (inactive) and the GI50 (UACC-257) was 71.3 µM (inactive). For the same compound, the GI50 (HCT-116) was 26.9 µM (inactive) and the GI50 (BT-549) was 23.3 µM (inactive).

In the case of `COc1ccc(-c2cc(O)c3cccnc3n2)cc1`, the GI50 (SK-MEL-28) is reported as 44 µM (inactive), the GI50 (A549) is reported as 53.7 µM (inactive) and the GI50 (MCF7) is reported as 19 µM (inactive). For the same compound, the GI50 (OVCAR-5) was > 100 µM (inactive), the GI50 (MOLT-4) was 29.3 µM (inactive) and the GI50 (Hs-578T) was 24.9 µM (inactive). For the same compound, the GI50 (SNB-19) was 78.5 µM (inactive), the GI50 (NCI-H522) was 41.1 µM (inactive) and the GI50 (NCI-H226) was 45.1 µM (inactive). The GI50 (COLO 205) was 19.1 µM (inactive), the GI50 (SF-268) was 40.6 µM (inactive) and the GI50 (SK-MEL-2) was 83.8 µM (inactive). For the same compound, the GI50 (OVCAR-4) was 67.6 µM (inactive), the GI50 (NCI-H23) was 34.7 µM (inactive) and the GI50 (IGROV-1) was 26.7 µM (inactive). For the same compound, the GI50 (M14) was 28.3 µM (inactive), the GI50 (T47D) was 51.1 µM (inactive) and the GI50 (HOP-62) was 44.3 µM (inactive). For the same compound, the GI50 (ACHN) was 53.7 µM (inactive), the GI50 (DU-145) was 64.6 µM (inactive) and the GI50 (CAKI-1) was 17.9 µM (inactive). The GI50 (K562) was 25.8 µM (inactive), the GI50 (SK-OV-3) was 26.7 µM (inactive) and the GI50 (SN12C) was 36.7 µM (inactive). The GI50 (SF-539) was 42.4 µM (inactive), the GI50 (KM12) was 33.7 µM (inactive) and the GI50 (TK-10) was 44.4 µM (inactive). For the same compound, the GI50 (CCRF-CEM) was 28.1 µM (inactive), the GI50 (HCC 2998) was 82 µM (inactive) and the GI50 (NCI/ADR-RES) was 47.6 µM (inactive). The GI50 (UO-31) was 54.6 µM (inactive), the GI50 (RPMI-8226) was 22.9 µM (inactive) and the GI50 (EKVX) was > 100 µM (inactive). For the same compound, the GI50 (SW-620) was 32.2 µM (inactive), the GI50 (MDA-MB-231) was > 100 µM (inactive) and the GI50 (RXF 393) was 44.5 µM (inactive). The GI50 (LOX IMVI) was 28.1 µM (inactive), the GI50 (OVCAR-8) was 57.1 µM (inactive) and the GI50 (UACC-62) was 23.2 µM (inactive). The GI50 (HT-29) was 15.7 µM (inactive), the GI50 (A498) was 63.5 µM (inactive) and the GI50 (Malme-3M) was 31.9 µM (inactive). The GI50 (HCT-15) was 34.3 µM, the GI50 (UACC-257) was 26.2 µM (inactive) and the GI50 (BT-549) was 77.4 µM (inactive).
